Assay results published in patent US20110118229A1, “2-ARYLMETHYLAZETIDINE-CARBAPENEM-3-CARBOXYLIC ACID ESTER DERIVATIVE OR ITS SALT, PROCESS FOR THE PREPARATION THEREOF AND PHARMACEUTICAL COMPOSITION COMPRISING THE SAME” (KUKJE PHARM. IND. CO., LTD., priority 2007, published 2011).
Converted amounts (≈) assume the structure as drawn.

Experiments:
I.C.R. mice = assay: Acute Toxicity Test, oral, mice; type: in vivo; conditions: observed 7 days
Method: The acute toxicity of the compound of Example 1 was tested using several groups of I.C.R. mice each of 10 mice. 500 mg/kg, 1,000 mg/kg, and 2,000 mg/kg doses of the compound of Example 1 were orally administered. […] Thus, LD50 was placed at a level higher than 2,000 mg/kg. The compound of Example 1 is thus a largely non-toxic antibiotic.
In addition, acute toxicity of the compounds of Examples 10 and 17 was tested using two groups of I.C.R. mice each of 5 mice/2 groups. 1,000 mg/kg, 2,000 mg/kg, and 3,000 mg/kg doses of the compounds of Examples 10 to 17 were orally administered. […] Thus, LD50 was placed at a level higher than 3,000 mg/kg. Therefore, the compounds of Examples 10 to and 17 are non-toxic antibiotics.

[1] = Test of Pharmacokinetics in mice (blood concentration by bioassay); conditions: I.C.R mice, 40 mg/kg; for AUC (area under blood concentration curve): bioassay
Method: The pharmacokinetics of the compounds of the present invention was determined using mice. […] Blood samples were collected from mice tails at 10 min., 20 min., 30 min., 45 min., 1 hour, 1.5 hours, 2 hours, 3 hours and 4 hours after the administration. […] Blood samples were collected from mice tails in the same manner described above.
The concentrations of each compound in blood were measured using bioassay methods: Agar plate was prepared with agar medium containing 1% Streptococcus Pyogenes 77A culture solution, and the blood samples and the diluted standards (each of which were obtained by dilution of the already-known concentration by two times) were added to wells formed on the plates. The plate was stored at 4° C. for 1 hour to is allow the sample to spread, and incubated at 37° C. for 18 hours. Diameters of each inhibition-circle were measured and then the concentration of the compounds in blood was calculated, based on the calibration curve obtained from the diluted standards.

[2] = Chemical Stability Test (HPLC purity on storage); type: physicochemical
Method: 500 mg of the compound prepared in Example 10 was charged into a glass bottle, and HPLC purities of the compound were measured at the condition of 40° C. and a humidity of 75%, at 1 week, 2 week, 3 week, and 1 month. The HPLC purities were obtained by comparing each of the measured HPLC amounts with the initial HPLC amount.

[3] = tested on: Enterobacter cloacae ATCC 13880; assay: Minimum Inhibitory Concentration (MIC); type: cell-based
Text: (§1) The metabolite has a wide spectrum of antibacterial activities against Gram-negative and Gram-positive bacteria and excellent antibacterial activities against resistant bacteria such as methicillin-resistant Staphylococcus aurus (MRSA) and quinolone-resistant strains (QRS), as in WO2006/025634 by the present inventors.

[4] = tested on: Enterobacter cloacae P 99(2)3; assay: Minimum Inhibitory Concentration (MIC); type: cell-based
Text: as §1

GBBS ATCC 12386 = assay: Minimum Inhibitory Concentration (MIC); type: cell-based
Text: as §1

Klebsiella oxytoca 1082 = assay: Minimum Inhibitory Concentration (MIC); type: cell-based; conditions: strain 1082
Text: as §1

[5] = tested on: Klebsiella pneumoniae ATCC 13883; assay: Minimum Inhibitory Concentration (MIC); type: cell-based
Text: as §1

[6] = tested on: Moraxella catarrhalis AMP S(3); assay: Minimum Inhibitory Concentration (MIC); type: cell-based; conditions: 3 strains
Text: as §1

[7] = tested on: Salmonella typhimurium 179; assay: Minimum Inhibitory Concentration (MIC); type: cell-based; conditions: strain 179
Text: as §1

[8] = tested on: Staphylococcus aureus (2); assay: Minimum Inhibitory Concentration (MIC); type: cell-based; conditions: 2 strains
Text: as §1

[9] = tested on: Staphylococcus aureus ATCC 29213; assay: Minimum Inhibitory Concentration (MIC); type: cell-based
Text: as §1

[10] = tested on: Streptococcus ATCC 496 (4); assay: Minimum Inhibitory Concentration (MIC); type: cell-based
Text: as §1

[11] = tested on: Streptococcus faecium (1); assay: Minimum Inhibitory Concentration (MIC); type: cell-based; conditions: 1 strain
Text: as §1

[12] = tested on: Streptococcus pneumoniae Pen. R (4); assay: Minimum Inhibitory Concentration (MIC); type: cell-based; conditions: 4 strains
Text: as §1

[13] = tested on: Streptococcus pneumoniae Pen. S (4); assay: Minimum Inhibitory Concentration (MIC); type: cell-based; conditions: 4 strains
Text: as §1

Escherichia coli (4) = assay: Minimum Inhibitory Concentration (MIC); type: cell-based; parameters: unit not given here; conditions: 4 strains
Text: as §1

[14] = tested on: Klebsiella pneumoniae (4); assay: Minimum Inhibitory Concentration (MIC); type: cell-based; parameters: unit not given here; conditions: 4 strains
Text: as §1

[15] = tested on: Moraxella catarrhalis AMP R(3); assay: Minimum Inhibitory Concentration (MIC); type: cell-based; parameters: unit not given here; conditions: 3 strains
Text: as §1

[16] = tested on: Staphylococcus aureus (10), MRSA; assay: Minimum Inhibitory Concentration (MIC); type: cell-based; parameters: unit not given here; conditions: 10 strains
Text: as §1

[17] = tested on: Staphylococcus aureus (5), QRS; assay: Minimum Inhibitory Concentration (MIC); type: cell-based; parameters: unit not given here; conditions: 5 strains
Text: as §1

[18] = tested on: Streptococcus Levo. R (4); assay: Minimum Inhibitory Concentration (MIC); type: cell-based; parameters: unit not given here; conditions: 4 strains
Text: as §1

[19] = tested on: Streptococcus Levo. S (4); assay: Minimum Inhibitory Concentration (MIC); type: cell-based; parameters: unit not given here; conditions: 4 strains
Text: as §1

[20] = tested on: Streptococcus pyogenes (2); assay: Minimum Inhibitory Concentration (MIC); type: cell-based; parameters: unit not given here; conditions: 2 strains
Text: as §1

[21] = oral, 500, 1,000 and 2,000 mg/kg
[22] = oral, 1,000, 2,000 and 3,000 mg/kg

Molecule: C[C@@H](O)[C@H]1C(=O)N2C(C(=O)OCOC(=O)C(C)(C)C)=C(SC3CN(Cc4ccc(F)cc4)C3)[C@H](C)[C@H]12 [Example 1, pivaloyloxymethyl(1R,5S,6S)-2-[(1-(4-fluorobenzyl)azetidin-3-yl)thio]-6-[(R)-1-hydroxyethyl]-1-methyl-carbapen-2-em-3-carboxylate]
- LD50 (I.C.R. mice; [21]): higher than 2,000 mg/kg
- body temperature change and weight change (I.C.R. mice; [21]): no distinct body temperature change nor weight loss were observed
- death (I.C.R. mice; [21]): no mice died
- ratio of oral/subcutaneous AUCs [1]: about 52%
- Cmax (maximum blood concentration) ([1]; PO): 88.1 µg/mL
- T1/2 (half time of blood concentration) ([1]; PO): 0.931 h
- Tmax (time at the point of maximum blood concentration) ([1]; PO): 0.38 h
- AUC (area under blood concentration curve) ([1]; PO): 117000 ng·h/mL
- Cmax (maximum blood concentration) ([1]; SC): 97.9 µg/mL
- T1/2 (half time of blood concentration) ([1]; SC): 6.28 h
- Tmax (time at the point of maximum blood concentration) ([1]; SC): 1.76 h
- AUC (area under blood concentration curve) ([1]; SC): 226000 ng·h/mL

Molecule: 1-(isopropyloxycarbonyloxy)ethyl(1R,5S,6S)-2-[(1-(4-fluorobenzyl)azetidin-3-yl)thio]-6-[(R)-1-hydroxyethyl]-1-methyl-carbapen-2-em-3-carboxylate [Example 2]
- ratio of oral/subcutaneous AUCs [1]: about 54%
- Cmax (maximum blood concentration) ([1]; PO): 72.8 µg/mL
- T1/2 (half time of blood concentration) ([1]; PO): 1.15 h
- Tmax (time at the point of maximum blood concentration) ([1]; PO): 1.00 h
- AUC (area under blood concentration curve) ([1]; PO): 94800 ng·h/mL
- Cmax (maximum blood concentration) ([1]; SC): 66.4 µg/mL
- T1/2 (half time of blood concentration) ([1]; SC): 3.92 h
- Tmax (time at the point of maximum blood concentration) ([1]; SC): 0.75 h
- AUC (area under blood concentration curve) ([1]; SC): 174000 ng·h/mL

Molecule: CC(OC(=O)OC1CCCCC1)OC(=O)C1=C(SC2CN(Cc3ccc(F)cc3)C2)[C@H](C)[C@@H]2[C@@H]([C@@H](C)O)C(=O)N12 (stereo partly drawn) [Example 3, 1-(cyclohexyloxycarbonyloxy)ethyl(1R,5S,6S)-2-[(1-(4-fluorobenzyl)azetidin-3-yl)thio]-6-[(R)-1-hydroxyethyl]-1-methyl-carbapen-2-em-3-carboxylate]
- ratio of oral/subcutaneous AUCs [1]: about 113%
- Cmax (maximum blood concentration) ([1]; PO): 39.0 µg/mL
- T1/2 (half time of blood concentration) ([1]; PO): 1.43 h
- Tmax (time at the point of maximum blood concentration) ([1]; PO): 0.59 h
- AUC (area under blood concentration curve) ([1]; PO): 64500 ng·h/mL
- Cmax (maximum blood concentration) ([1]; SC): 16.2 µg/mL
- T1/2 (half time of blood concentration) ([1]; SC): 1.05 h
- Tmax (time at the point of maximum blood concentration) ([1]; SC): 2.50 h
- AUC (area under blood concentration curve) ([1]; SC): 56900 ng·h/mL

Molecule: C[C@@H](O)[C@H]1C(=O)N2C(C(=O)OCOC(=O)C(C)(C)C)=C(SC3CN(Cc4ccc(F)cc4)C3)[C@H](C)[C@H]12.O=P(O)(O)O [Example 10, Phosphoric Acid Salt of pivaloyloxymethyl(1R,5S,6S)-2-[(1-(4-fluorobenzyl)azetidin-3-yl)thio]-6-[(R)-1-hydroxyethyl]-1-methyl-carbapen-2-em-3-carboxylate]
- HPLC Purity ([2]; 40° C., humidity 75%, 1 month): 99.69%
- HPLC Purity ([2]; 40° C., humidity 75%, 1 week): 99.85%
- HPLC Purity ([2]; 40° C., humidity 75%, 2 week): 99.78%
- HPLC Purity ([2]; 40° C., humidity 75%, 3 week): 99.74%
- HPLC Purity ([2]; Initial): 99.83%
- body temperature change and weight change (I.C.R. mice; [22]): no body distinct temperature change nor weight loss were observed
- death (I.C.R. mice; [22]): no mice died

Molecule: C[C@@H](O)[C@H]1C(=O)N2C(C(=O)O)=C(SC3CN(Cc4ccc(F)cc4)C3)[C@H](C)[C@H]12 [Preparation Example 4, (1R,5S,6S)-2-[(1-(4-fluorobenzyl)azetidin-3-yl)thio]-6-[(R)-1-hydroxyethyl]-1-methyl-carbapen-2-em-3-carboxylic acid]
- MIC [3]: 2 µg/mL (≈ 4.92 µM)
- MIC [4]: 0.049 µg/mL (≈ 0.121 µM)
- MIC (GBBS ATCC 12386): 0.03 µg/mL (≈ 0.0738 µM)
- MIC (Klebsiella oxytoca 1082): 0.049 µg/mL (≈ 0.121 µM)
- MIC [5]: 0.122 µg/mL (≈ 0.301 µM)
- MIC [6]: < 0.008 µg/mL
- MIC [7]: 0.049 µg/mL (≈ 0.121 µM)
- MIC [8]: 0.002 µg/mL (≈ 0.00492 µM)
- MIC [9]: 0.015 µg/mL (≈ 0.0369 µM)
- MIC [10]: 0.03 µg/mL (≈ 0.0738 µM)
- MIC [11]: 1.56 µg/mL (≈ 3.85 µM)
- MIC [12]: 0.12 µg/mL (≈ 0.295 µM)
- MIC [13]: < 0.008 µg/mL
- MIC (Escherichia coli (4)): 0.025-0.098
- MIC [14]: 0.06-0.25
- MIC [15]: 0.03-0.12
- MIC [16]: 0.025-3.125
- MIC [17]: 0.049-0.391
- MIC [18]: 0.006-0.12
- MIC [19]: <0.008-0.25
- MIC [20]: 0.013-0.025
- Cmax (maximum blood concentration) ([1]; PO): 3.97 µg/mL
- T1/2 (half time of blood concentration) ([1]; PO): 1.32 h
- Tmax (time at the point of maximum blood concentration) ([1]; PO): 0.56 h
- AUC (area under blood concentration curve) ([1]; PO): 8280 ng·h/mL
- Cmax (maximum blood concentration) ([1]; SC): 68.5 µg/mL
- T1/2 (half time of blood concentration) ([1]; SC): 0.76 h
- Tmax (time at the point of maximum blood concentration) ([1]; SC): 0.38 h
- AUC (area under blood concentration curve) ([1]; SC): 83240 ng·h/mL

Molecule: C[C@@H](O)[C@H]1C(=O)N2C(C(=O)OCOC(=O)C(C)(C)C)=C(SC3CN(Cc4ccc(F)cc4)C3)[C@H](C)[C@H]12.O=C(O)/C=C/C(=O)O [Example 17, Fumaric Acid Salt of pivaloyloxymethyl(1R,5S,6S)-2-[(1-(4-fluorobenzyl)azetidin-3-yl)thio]-6-[(R)-1-hydroxyethyl]-1-methyl-carbapen-2-em-3-carboxylate]
- body temperature change and weight change (I.C.R. mice; [22]): no body distinct temperature change nor weight loss were observed
- death (I.C.R. mice; [22]): no mice died
